How the values were obtained:
[1] = test system: IL12Rβ2, IL18R1, and IL18RAP gene expression in T helper cells; assay: IL-12-induced gene expression in T helper cells (quantitative RT-PCR); format: cell-based, human; conditions: TCR-stimulated T helper cells
Protocol: The effect of compounds and methods of the present invention on IL-12-induced gene expression in T helper cells was evaluated as follows. For these studies, analyses were performed to examine the effect of compounds of the present invention on expression of three genes induced by IL-12 in T helper cells: IL12Rβ2, IL18R1, and IL18RAP. (See, e.g., Saremeva et al. (2000) J hnmunol 165:1933-1938; Rogge et al. (1997) J Exp Med 185:825-831; and Nakahira et al. (2001) J Inmunol 167:1306-1312.)
Human cord blood naive T helper cells (AllCells LLC, Emeryville, Calif.) were stimulated (i.e., T cell receptor (TCR) stimulation) by seeding into 96-well culture dishes coated with 5 μg/ml anti-CD3 antibody (clone UCHT1, R&D Systems, Minneapolis, Minn.), and 5 μg/ml anti-CD28 antibody (clone ANC28.1/D10, Ancell Corporation, Bayport, Minn.), and cultured at 37° C., 5% CO2 in RPMI-1640 (Mediatech Inc., Herndon, Va.) containing 1% FBS, 1 U/ml penicillin-1 μg/ml streptomycin (Invitrogen Corporation, Carlsbad, California), and 50 U/ml IL-2 (Roche Diagnostics Corporation, Indianapolis, Ind.). At time of seeding, cells were cultured with media alone or with media containing 2 ng/ml IL-12 (R&D Systems, Minneapolis, Minn.) (to stimulate differentiation of the T helper cells into Th1 cells) and 10 μg/ml anti-IL-4 antibody (R&D Systems, Minneapolis, Minn.) (to block differentiation of the T helper cells into Th2 cells). Compound B or 1% DMSO (Veh) was added to the existing culture media and the cells cultured for an additional six days.
The cells were then lysed using Cell-to-Signal lysis buffer (Applied Biosystems, Foster City, Calif.) according to the manufacturer's instructions. The cell lysates were diluted with RNAse-free and DNAse-free water and used as templates in quantitative one-step duplex RT-PCR reactions using QuantiTect Multiplex RT-PCR Kit reagents (Qiagen Inc., Valencia, Calif.) and Taqman primers and probes (Applied Biosystems, Foster City, Calif.) as follows: IL18RAP Taqman primer/probe, catalog no. HS00187256M1; IL-12Rβ2 Taqman primer/probe, catalog no. HS00155486M1; EL18R1 Taqman primer/probe, catalog no. HS00175381M1; and TBET Taqman primer/probe, catalog no. HS00203436M1. RT-PCR reactions were performed according to the manufacturers' instructions. Changes in gene expression of IL12Rβ2, IL18R1, and IL18RAP following IL-12 addition in each sample were normalized relative to 18s ribosomal RNA gene expression measured in the same sample.

naïve T helper cells = assay: Th1 cell differentiation: IFN-γ secretion after second and third TCR stimulation following washout; format: cell-based, human; conditions: another series, first TCR stimulation six days with IL-12, FIG. 8
Protocol: The effectiveness of compounds of the present invention at reducing Th1 differentiation was examined as follows. Th1 differentiation was induced by culturing anti-CD3 stimulated T cells in the presence of exogenous IL-12. Human cord blood naive T helper cells (AllCells LLC, Emeryville, Calif.) were stimulated (i.e., T cell receptor (TCR) stimulation) by seeding into 96-well culture dishes coated with 5 μg/ml anti-CD3 antibody (clone UCHT1, R&D Systems, Minneapolis, Minn.), and 5 μg/ml anti-CD28 antibody (clone ANC28.1/D10, Ancell Corporation, Bayport, Minn.), and cultured at 37° C., 5% CO2 in RPMI-1640 (Mediatech Inc., Hemdon, Va.) containing 1% FBS, 1 U/ml penicillin-1 μg/ml streptomycin (Invitrogen Corporation, Carlsbad, Calif.), and 50 U/ml IL-2 (Roche Diagnostics Corporation, Indianapolis, Ind.). At time of seeding, cells were cultured with media alone or with media containing 2 ng/ml IL-12 and 10 μg/ml anti-IL-4 to induce Th1 cell differentiation. […]
The cells were then collected, washed twice with RPMI-1640 media containing 1% FBS, and counted before equal numbers of cells per well were re-stimulated (second T cell receptor (TCR) stimulation following washout of all prior treatments) by re-seeding the cells into 96-well culture dishes coated with 5 μg/ml anti-CD3 antibody and 5 μg/ml anti-CD28 antibody. […] After 24 hours the conditioned media from the cells was collected and analyzed for IFN-γ levels using a MS2400 Tissue Culture Kit (MesoScale Technologies, Gaithersburg, Md.) according to the manufacturer's instructions.
Thirteen days after the second TCR stimulation described above, the cells were collected, washed twice with RPMI-1640 media containing 1% FBS, and counted before equal numbers of cells per well were stimulated a third time (third TCR stimulation) by re-seeding into 96-well culture dishes coated with 5 μg/ml anti-CD3 antibody and 5 μg/ml anti-CD28 antibody. […]
In another series of experiments, the effectiveness of compounds of the present invention at reducing Th1 differentiation was determined. […]

[2] = absence of IL-12, six days, normalized to 18s ribosomal RNA

Structure (SMILES) | gene expression of IL12Rβ2 [1, 2] | gene expression of IL18R1 [1, 2] | gene expression of IL18RAP [1, 2] | IL-12-mediated increase in IL12Rβ2 gene expression ([1]; presence of IL-12, six days) | IL-12-mediated increase in IL18R1 gene expression ([1]; presence of IL-12, six days) | IL-12-mediated increase in IL18RAP gene expression ([1]; presence of IL-12, six days) | IFN-γ secretion following the second TCR stimulation (naïve T helper cells)
O=C(O)CNC(=O)c1ncc2cc(Oc3ccccc3)ccc2c1O [Compound B, [(4-Hydroxy-7-phenoxy-isoquinoline-3-carbonyl)-amino]-acetic acid] | decrease | decrease | decrease | reduced | reduced | reduced | –
Cc1ccc(Cl)c2cnc(C(=O)NCC(=O)O)c(O)c12 [Compound D, [(8-Chloro-4-hydroxy-5-methyl-isoquinoline-3-carbonyl)-amino]-acetic acid] | – | – | – | – | – | – | reduced IFN-γ secretion

— patent US20100144737A1, “METHODS FOR INHIBITING T HELPER CELL DIFFERENTIATION” (FibroGen, Inc., priority 2008, published 2010)
